Assay results: PubChem BioAssay AID1963978 (Molecular Pharmacology Branch, DTP, NCI, 2024)

Test system: 616215-338-R-J1-PDC spheroids with HUVEC/MSC, viability
Assay: Anticancer human tumor 616215-338-R-J1-PDC patient-derived colon adenocarcinoma cell line growth inhibition [PI3K]
Conditions: for IC50: curve of first compound; for viability, T/C: stronger effect = lower value
In short: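 Targeted small molecules plus PI3K inhibitors, half-log dose series from Cmax (default top 10 microM), were applied to heterotypic spheroids of cancer cells with HUVEC and MSCs. Viability indicated growth inhibition.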

[1] = second compound 0.00316 µM, first compound 0.0316 µM
[2] = second compound 0.00316 µM, first compound 0.1 µM
[3] = second compound 0.00316 µM, first compound 0.316 µM
[4] = second compound 0.00316 µM, first compound 1 µM
[5] = second compound 0.00316 µM, first compound 3.16 µM
[6] = second compound 0.00316 µM, first compound 10 µM
[7] = second compound 0.01 µM, first compound 0.0316 µM
[8] = second compound 0.01 µM, first compound 0.1 µM
[9] = second compound 0.01 µM, first compound 0.316 µM
[10] = second compound 0.01 µM, first compound 1 µM
[11] = second compound 0.01 µM, first compound 3.16 µM
[12] = second compound 0.01 µM, first compound 10 µM
[13] = second compound 0.0316 µM, first compound 0.0316 µM
[14] = second compound 0.0316 µM, first compound 0.1 µM
[15] = second compound 0.0316 µM, first compound 0.316 µM
[16] = second compound 0.0316 µM, first compound 1 µM
[17] = second compound 0.0316 µM, first compound 3.16 µM
[18] = second compound 0.0316 µM, first compound 10 µM
[19] = second compound 0.1 µM, first compound 0.0316 µM
[20] = second compound 0.1 µM, first compound 0.1 µM
[21] = second compound 0.1 µM, first compound 0.316 µM
[22] = second compound 0.1 µM, first compound 1 µM
[23] = second compound 0.1 µM, first compound 3.16 µM
[24] = second compound 0.1 µM, first compound 10 µM
[25] = second compound 0.316 µM, first compound 0.0316 µM
[26] = second compound 0.316 µM, first compound 0.1 µM
[27] = second compound 0.316 µM, first compound 0.316 µM
[28] = second compound 0.316 µM, first compound 1 µM
[29] = second compound 0.316 µM, first compound 3.16 µM
[30] = second compound 0.316 µM, first compound 10 µM
[31] = second compound 1 µM, first compound 0.0316 µM
[32] = second compound 1 µM, first compound 0.1 µM
[33] = second compound 1 µM, first compound 0.316 µM
[34] = second compound 1 µM, first compound 1 µM
[35] = second compound 1 µM, first compound 3.16 µM
[36] = second compound 1 µM, first compound 10 µM
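Also: spheroids exposed to agents for seven days before the viability read.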

CCCS(=O)(=O)Nc1ccc(F)c(C(=O)c2c[nH]c3ncc(-c4ccc(Cl)cc4)cc23)c1F + COc1c(OCCCN2CCOCC2)ccc2c3n(c(=NC(=O)c4cnc(N)nc4)nc12)CCN3
IC50 (second compound 0.00316 µM): 4830 nM
IC50 (second compound 0.01 µM): 5110 nM
IC50 (second compound 0.0316 µM): 4930 nM
IC50 (second compound 0.1 µM): 2860 nM
IC50 (second compound 0.316 µM): < 31.6 nM
IC50 (second compound 1 µM): < 31.6 nM
viability, T/C [1]: 91.8%
viability, T/C [2]: 96.1%
viability, T/C [3]: 99%
viability, T/C [4]: 97.9%
viability, T/C [5]: 77.9%
viability, T/C [6]: 2.29%
viability, T/C [7]: 105%
viability, T/C [8]: 104%
viability, T/C [9]: 98.3%
viability, T/C [10]: 94.7%
viability, T/C [11]: 84.9%
viability, T/C [12]: 3.47%
viability, T/C [13]: 105%
viability, T/C [14]: 107%
viability, T/C [15]: 120%
viability, T/C [16]: 106%
viability, T/C [17]: 77%
viability, T/C [18]: 7.26%
viability, T/C [19]: 99%
viability, T/C [20]: 92.8%
viability, T/C [21]: 87.3%
viability, T/C [22]: 93.7%
viability, T/C [23]: 45.9%
viability, T/C [24]: 9.33%
viability, T/C [25]: 53.8%
viability, T/C [26]: 35.7%
viability, T/C [27]: 38.9%
viability, T/C [28]: 38.5%
viability, T/C [29]: 27%
viability, T/C [30]: 5.18%
viability, T/C [31]: 23.3%
viability, T/C [32]: 29.3%
viability, T/C [33]: 21.3%
viability, T/C [34]: 20.1%
viability, T/C [35]: 18.7%
viability, T/C [36]: 3.73%

C[C@@H](NC(=O)c1ncnc(N)c1Cl)c1ncc(C(=O)Nc2cc(C(F)(F)F)c(Cl)cn2)s1 + COc1c(OCCCN2CCOCC2)ccc2c3n(c(=NC(=O)c4cnc(N)nc4)nc12)CCN3
IC50 (second compound 0.00316 µM): > 10000 nM
IC50 (second compound 0.01 µM): > 10000 nM
IC50 (second compound 0.0316 µM): > 10000 nM
IC50 (second compound 0.1 µM): 6860 nM
IC50 (second compound 0.316 µM): 72 nM
IC50 (second compound 1 µM): < 31.6 nM
viability, T/C [1]: 94.6%
viability, T/C [2]: 117%
viability, T/C [3]: 117%
viability, T/C [4]: 109%
viability, T/C [5]: 104%
viability, T/C [6]: 80.2%
viability, T/C [7]: 96.3%
viability, T/C [8]: 102%
viability, T/C [9]: 116%
viability, T/C [10]: 115%
viability, T/C [11]: 112%
viability, T/C [12]: 89.3%
viability, T/C [13]: 97.9%
viability, T/C [14]: 106%
viability, T/C [15]: 106%
viability, T/C [16]: 113%
viability, T/C [17]: 91.2%
viability, T/C [18]: 53.3%
viability, T/C [19]: 114%
viability, T/C [20]: 103%
viability, T/C [21]: 97.6%
viability, T/C [22]: 97.2%
viability, T/C [23]: 74.7%
viability, T/C [24]: 37.7%
viability, T/C [25]: 54%
viability, T/C [26]: 48.4%
viability, T/C [27]: 40.2%
viability, T/C [28]: 32.2%
viability, T/C [29]: 28.4%
viability, T/C [30]: 8.73%
viability, T/C [31]: 24.4%
viability, T/C [32]: 19.7%
viability, T/C [33]: 16.2%
viability, T/C [34]: 11.3%
viability, T/C [35]: 6.09%
viability, T/C [36]: 1.64%

Cn1ncnc1[C@H]1c2n[nH]c(=O)c3cc(F)cc(c23)N[C@@H]1c1ccc(F)cc1 + COc1c(OCCCN2CCOCC2)ccc2c3n(c(=NC(=O)c4cnc(N)nc4)nc12)CCN3
IC50 (second compound 0.00316 µM): > 100 nM
IC50 (second compound 0.01 µM): > 100 nM
IC50 (second compound 0.0316 µM): > 100 nM
IC50 (second compound 0.1 µM): > 100 nM
IC50 (second compound 0.316 µM): < 0.316 nM
IC50 (second compound 1 µM): < 0.316 nM
viability, T/C (second compound 0.00316 µM, first compound 0.000316 µM): 99.2%
viability, T/C (second compound 0.00316 µM, first compound 0.001 µM): 101%
viability, T/C (second compound 0.00316 µM, first compound 0.00316 µM): 107%
viability, T/C (second compound 0.00316 µM, first compound 0.01 µM): 95.2%
viability, T/C [1]: 92.5%
viability, T/C [2]: 94.1%
viability, T/C (second compound 0.01 µM, first compound 0.000316 µM): 93.8%
viability, T/C (second compound 0.01 µM, first compound 0.001 µM): 95.7%
viability, T/C (second compound 0.01 µM, first compound 0.00316 µM): 97.9%
viability, T/C (second compound 0.01 µM, first compound 0.01 µM): 97.7%
viability, T/C [7]: 96.9%
viability, T/C [8]: 102%
viability, T/C (second compound 0.0316 µM, first compound 0.000316 µM): 96.9%
viability, T/C (second compound 0.0316 µM, first compound 0.001 µM): 99.3%
viability, T/C (second compound 0.0316 µM, first compound 0.00316 µM): 113%
viability, T/C (second compound 0.0316 µM, first compound 0.01 µM): 98%
viability, T/C [13]: 97%
viability, T/C [14]: 95.7%
viability, T/C (second compound 0.1 µM, first compound 0.000316 µM): 111%
viability, T/C (second compound 0.1 µM, first compound 0.001 µM): 93.6%
viability, T/C (second compound 0.1 µM, first compound 0.00316 µM): 88.5%
viability, T/C (second compound 0.1 µM, first compound 0.01 µM): 81%
viability, T/C [19]: 89.4%
viability, T/C [20]: 63.7%
viability, T/C (second compound 0.316 µM, first compound 0.000316 µM): 45.1%
viability, T/C (second compound 0.316 µM, first compound 0.001 µM): 41%
viability, T/C (second compound 0.316 µM, first compound 0.00316 µM): 31.9%
viability, T/C (second compound 0.316 µM, first compound 0.01 µM): 36.2%
viability, T/C [25]: 37%
viability, T/C [26]: 29.8%
viability, T/C (second compound 1 µM, first compound 0.000316 µM): 29.8%
viability, T/C (second compound 1 µM, first compound 0.001 µM): 24.9%
viability, T/C (second compound 1 µM, first compound 0.00316 µM): 23.1%
viability, T/C (second compound 1 µM, first compound 0.01 µM): 19.5%
viability, T/C [31]: 19.4%
viability, T/C [32]: 22.3%
